Experimental data as given in ChEMBL document CHEMBL2074214, “Penetration of amitriptyline, but not of fluoxetine, into brain is enhanced in mice with blood-brain barrier deficiency due to mdr1a P-glycoprotein gene disruption” (Neuropsychopharmacology, 2000).

Target: ATP-dependent translocase ABCB1 (Mus musculus, UniProt P21447)
Assay: TP_TRANSPORTER: increase in brain concentration in mdr1a(-/-) mouse
Type: functional, organism-based
Conditions: in vivo

Chain of ATP-dependent translocase ABCB1 (P21447 whole entry): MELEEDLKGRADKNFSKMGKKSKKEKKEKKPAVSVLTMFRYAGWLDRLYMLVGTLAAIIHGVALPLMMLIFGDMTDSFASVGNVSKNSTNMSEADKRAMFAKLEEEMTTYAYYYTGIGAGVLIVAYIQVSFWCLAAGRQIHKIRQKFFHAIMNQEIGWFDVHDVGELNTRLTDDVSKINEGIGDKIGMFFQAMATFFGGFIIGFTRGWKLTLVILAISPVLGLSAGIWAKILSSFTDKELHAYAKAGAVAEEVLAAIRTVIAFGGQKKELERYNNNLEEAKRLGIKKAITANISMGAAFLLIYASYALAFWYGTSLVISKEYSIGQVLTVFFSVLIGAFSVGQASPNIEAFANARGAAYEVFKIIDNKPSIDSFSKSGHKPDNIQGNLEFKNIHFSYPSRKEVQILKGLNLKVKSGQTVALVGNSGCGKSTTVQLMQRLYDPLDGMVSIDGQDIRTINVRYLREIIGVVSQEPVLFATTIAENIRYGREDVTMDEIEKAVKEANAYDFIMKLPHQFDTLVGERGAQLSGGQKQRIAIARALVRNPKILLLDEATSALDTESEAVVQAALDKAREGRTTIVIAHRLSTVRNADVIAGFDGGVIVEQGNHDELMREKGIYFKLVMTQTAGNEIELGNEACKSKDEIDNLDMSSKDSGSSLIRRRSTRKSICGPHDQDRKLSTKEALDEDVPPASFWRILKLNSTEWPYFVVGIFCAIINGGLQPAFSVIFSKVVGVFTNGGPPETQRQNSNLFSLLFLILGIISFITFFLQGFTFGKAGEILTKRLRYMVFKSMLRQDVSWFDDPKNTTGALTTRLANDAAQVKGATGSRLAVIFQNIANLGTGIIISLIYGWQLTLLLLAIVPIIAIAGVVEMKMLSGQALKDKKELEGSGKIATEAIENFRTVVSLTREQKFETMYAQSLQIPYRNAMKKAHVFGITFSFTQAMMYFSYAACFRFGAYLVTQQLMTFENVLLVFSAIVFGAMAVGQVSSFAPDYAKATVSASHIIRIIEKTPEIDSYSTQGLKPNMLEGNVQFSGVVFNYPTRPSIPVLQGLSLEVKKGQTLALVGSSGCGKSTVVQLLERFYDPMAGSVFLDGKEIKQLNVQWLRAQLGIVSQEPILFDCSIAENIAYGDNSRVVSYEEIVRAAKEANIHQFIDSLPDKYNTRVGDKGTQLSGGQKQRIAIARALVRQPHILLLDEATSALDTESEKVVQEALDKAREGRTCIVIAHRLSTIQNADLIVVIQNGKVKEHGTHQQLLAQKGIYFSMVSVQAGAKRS

SMILES: CNCCC=C1c2ccccc2CCc2ccccc21 [NORTRIPTYLINE]
- Activity: substrate [+]

SMILES: CN(C)CCC=C1c2ccccc2CCc2ccccc21 [AMITRIPTYLINE]
- Activity: substrate [+]
